Results taken from patent publication US11649195B2, “Smart release nitrogen-containing fertilizer granules” (RYNAN TECHNOLOGIES PTE. LTD., priority 2018, dated 2023).

Experiments:
Brassica integrifolia = experiment: Growing Brassica integrifolia in planting pots; type: in vivo; conditions: day 31 after planting, 10 g fertilizer per pot
Procedure: Fertilizers comprising different functional layers were used for growing Brassica integrifolia. The experiments were done in plastic planting pots containing 5 Kg of a growth media comprising 50% coconut fibers and 50% topsoil. The N, P2O5 and K2O contents in 100 g of the growth media were 7.7 mg, 32 mg and 34 mg, respectively. Ten grams of urea were buried in the growth media at around 3 cm depth as a comparative example (Example 41). Alternatively, 10 grams of various smart N-fertilizers comprising different organic functional layer 104 were buried into the growth media at around 3 cm depth (Examples 42 and following). Then, ten seeds of Brassica integrifolia (also called English spinach) were placed in each planting pot. The planting pots were placed outdoor and wetted with 200 ml water every day.
Smart N-Fertilizers with different organic functional layer comprising tannic acid and its modifiers were used for growing Brassica integrifolia. These experiments were carried out as described above for Examples 42 to 48.
Smart N-Fertilizers with different organic functional layer were used for growing Brassica integrifolia. These experiments were carried out as described above for Examples 42 to 48, with the exception of Example 55 (comparative), in which ten grams of DAP were buried in the growth media at around 3 cm depth as a comparative example.

[1] = of associated acids; cited from earlier work
[2] = Examples 41, 49-54 (tannic acid layers)

Q: For `NC(N)=O` [Urea, urea], which Height (Brassica integrifolia; [2]) is on record?
A: 4.90 cm

Q: What about the Leaf length (Brassica integrifolia; [2]) of the same compound?
A: 2.00 cm

Q: What about the Leaf width (Brassica integrifolia; [2]) of the same compound?
A: 1.00 cm

Q: And the Total yield (Brassica integrifolia; [2])?
A: 5 gram

Q: And the “Weight of 6 plants” value (Brassica integrifolia; [2])?
A: 5 gram

Q: And the Height (Brassica integrifolia; Examples 41-48)?
A: 4.90 cm

Q: What about the Leaf length (Brassica integrifolia; Examples 41-48) of the same compound?
A: 2.00 cm

Q: What about the Leaf width (Brassica integrifolia; Examples 41-48) of the same compound?
A: 1.00 cm

Q: And the Total yield (Brassica integrifolia; Examples 41-48)?
A: 5 gram

Q: What about the “Weight of 6 plants” value (Brassica integrifolia; Examples 41-48) of the same compound?
A: 5 gram

Q: For `N.N.O=P(O)(O)O` [DAP, Diammonium phosphate], which Height (Brassica integrifolia; Examples 55-64 (DAP core)) is on record?
A: 7.60 cm

Q: And the Leaf length (Brassica integrifolia; Examples 55-64 (DAP core))?
A: 4.20 cm

Q: What about the Leaf width (Brassica integrifolia; Examples 55-64 (DAP core)) of the same compound?
A: 2.40 cm

Q: What about the Total yield (Brassica integrifolia; Examples 55-64 (DAP core)) of the same compound?
A: 15 gram

Q: And the “Weight of 6 plants” value (Brassica integrifolia; Examples 55-64 (DAP core))?
A: 9 gram

Q: For `O=C(O)COc1ccc(Cl)cc1` [4-Chlorophenyloxy acetoate, 4-Chlorophenoxyacetic Acid], which pKa [1] is on record?
A: 3.58

Q: With `O=C(O)Cc1cccc2ccccc12` [1-Naphthalene acetoate, 1-Naphthalene Acetic Acid] as the compound, how does the pKa [1] read?
A: 4.23
